Laboratory results: US7022725B2, “Isoxazole derivatives” (Takeda Pharmaceutical Company Limited, priority 2000, dated 2006)

| melting point [°C] | Structure (SMILES) |
| --- | --- |
| 50 to 51 | Cc1cc(-c2oncc2CCCO)ccc1Cl [Example 97, 3-[5-(4-chloro-3-methylphenyl)-4-isoxazolyl]propan-1-ol] |
| 149 to 150 | O=C(O)CCc1conc1-c1ccc(Cl)cc1 [Example 5, 3-[3-(4-chlorophenyl)-4-isoxazolyl]propionic acid] |
| 75 to 76 | CCNC(=O)CCc1cnoc1-c1ccccc1 [Example 23, N-ethyl-3-(5-phenyl-4-isoxazolyl)propionamide] |
| 125 to 126 | CS(=O)(=O)c1ccc(-c2oncc2CCCO)cc1 [Example 106, 3-[5-(4-methylsulfonylphenyl)-4-isoxazolyl]propan-1-ol] |
| 177 to 180 | O=C(O)CCc1cnoc1-c1ccc(Cl)c(Br)c1 [Example 6, 3-[5-(3-bromo-4-chlorophenyl)-4-isoxazolyl]propionic acid] |
| 183 to 184 | O=C(O)CCc1c(-c2ccccc2)noc1O [Example 143, 3-[5-hydroxy-3-phenyl-4-isoxazolyl]propionic acid] |
| 124 to 125 | CSc1ccc(-c2oncc2CCC(=O)O)cc1 [Example 103, 3-[5-(4-methylthiophenyl)-4-isoxazolyl]propionic acid] |
| 204 to 205 | O=C(O)CCc1cnoc1-c1ccc([N+](=O)[O-])cc1 [Example 80, 3-[5-(4-nitrophenyl)-4-isoxazolyl]propionic acid] |
| 34 to 35 | COC(=O)CCc1cnoc1-c1ccc(Cl)s1 [Example 65, methyl 3-[5-(5-chloro-2-thienyl)-4-isoxazolyl]propionate] |
| 121 to 122 | Cc1ccc(-c2oncc2CCC(=O)O)cc1 [Example 12, 3-[5-(4-methylphenyl)-4-isoxazolyl]propionic acid] |
| 110 to 111 | O=C(O)CCc1cnoc1-c1cccc(Cl)c1 [Example 86, 3-[5-(3-chlorophenyl)-4-isoxazolyl]propionic acid] |
| 173 to 174 | O=C(O)CCc1conc1-c1ccc(C(F)(F)F)cc1 [Example 140, 3-[3-(4-trifluoromethylphenyl)-4-isoxazolyl]propionic acid] |
| 187 to 188 | Cc1onc(-c2ccc(Cl)cc2)c1CCC(=O)O [Example 141, 3-[3-(4-chlorophenyl)-5-methyl-4-isoxazolyl]propionic acid] |
| 149 to 151 | Cc1noc(-c2ccccc2)c1CCC(N)=O [Example 28, 3-(3-methyl-5-phenyl-4-isoxazolyl)propionamide] |
| 138 to 139 | Cc1onc(-c2ccc(C(F)(F)F)cc2)c1CCC(=O)O [Example 144, 3-[5-methyl-3-(4-trifluoromethylphenyl)-4-isoxazolyl]propionic acid] |
| 90 to 91 | O=C(O)CCc1cnoc1-c1ccccc1 [Example 7, 3-(5-phenyl-4-isoxazolyl)propionic acid] |
| 106 to 107 | O=C(O)CCc1cnoc1-c1ccc(Cl)cc1Cl [Example 69, 3-[5-(2,4-dichlorophenyl)-4-isoxazolyl]propionic acid] |
| 143 to 144 | O=C(O)CCc1cnoc1-c1cc(Cl)cc(Cl)c1 [Example 74, 3-[5-(3,5-dichlorophenyl)-4-isoxazolyl]propionic acid] |
| 169 to 170 | COc1ccc(-c2oncc2CCC(=O)O)cc1OC [Example 100, 3-[5-(3,4-dimethoxyphenyl)-4-isoxazolyl]propionic acid] |
| 156 to 157 | CCNC(=O)/C=C/c1cnoc1-c1ccccc1 [Example 27, (E)-N-ethyl-3-(5-phenyl-4-isoxazolyl)propenamide] |
| 151 to 152 | O=C(O)CCc1conc1-c1ccc(F)c(Br)c1 [Example 125, 3-[3-(3-bromo-4-fluorophenyl)-4-isoxazolyl]propionic acid] |
| 150 to 151 | O=C(O)CCc1cnoc1-c1ccc2c(c1)OCO2 [Example 89, 3-[5-(1,3-benzodioxol-5-yl)-4-isoxazolyl]propionic acid] |
| 136 to 137 | O=C(O)CCc1cnoc1-c1ccc(F)c(Br)c1 [Example 128, 3-[5-(3-bromo-4-fluorophenyl)-4-isoxazolyl]propionic acid] |
| 173 to 174 | Cc1noc(-c2ccccc2)c1/C=C/C(=O)O [Example 136, (E)-3-(3-methyl-5-phenyl-4-isoxazolyl)propenoic acid] |
| 158 to 159 | NC(=O)CCc1conc1-c1ccc(Cl)cc1 [Example 18, 3-[3-(4-chlorophenyl)-4-isoxazolyl]propionamide] |
| 101 to 102 | COc1ccc(-c2oncc2CCC(=O)O)cc1 [Example 13, 3-[5-(4-methoxyphenyl)-4-isoxazolyl]propionic acid] |
| 125 to 126 | O=C(O)CCc1cnoc1-c1ccc(F)cc1F [Example 59, 3-[5-(2,4-difluorophenyl)-4-isoxazolyl]propionic acid] |

| melting point [°C] | Structure (SMILES) |
| --- | --- |
| 94 to 95 | O=C(O)CCc1cnoc1-c1ccc(-c2ccccc2)cc1 [Example 131, 3-[5-(4-phenylphenyl)-4-isoxazolyl]propionic acid] |
| 40 to 41 | COC(=O)CCc1cnoc1-c1ccc(F)cc1F [Example 61, methyl 3-[5-(2,4-difluorophenyl)-4-isoxazolyl]propionate] |
| 63 to 64 | Cc1onc(-c2cccc(C(F)(F)F)c2)c1CCC(=O)O [Example 145, 3-[5-methyl-3-(3-trifluoromethylphenyl)-4-isoxazolyl]propionic acid] |
| 181 to 182 | O=C(O)CCc1conc1-c1ccc(Cl)c(Cl)c1 [Example 111, 3-[3-(3,4-dichlorophenyl)-4-isoxazolyl]propionic acid] |
| 126 to 127 | O=C(O)CCc1cnoc1-c1ccc(F)cc1 [Example 11, 3-[5-(4-fluorophenyl)-4-isoxazolyl]propionic acid] |
| 171 to 172 | O=C(O)CCc1cnoc1-c1ccc(C(F)(F)F)cc1 [Example 10, 3-[5-(4-trifluoromethylphenyl)-4-isoxazolyl]propionic acid] |
| 148 to 149 | O=C(O)CCc1conc1-c1ccc(Cl)c(F)c1 [Example 117, 3-[3-(4-chloro-3-fluorophenyl)-4-isoxazolyl]propionic acid] |
| 49 to 50 | COC(=O)CCc1cnoc1-c1cc(Cl)c(Cl)s1 [Example 124, methyl 3-[5-(4,5-dichloro-2-thienyl)-4-isoxazolyl]propionate] |
| 194 to 196 | NC(=O)/C=C/c1cnoc1-c1ccccc1 [Example 25, (E)-3-(5-phenyl-4-isoxazolyl)propenamide] |
| 73 to 74 | C[S+]([O-])c1ccc(-c2oncc2CCCO)cc1 (stereo not drawn) [Example 107, 3-[5-(4-methylsulfinylphenyl)-4-isoxazolyl]propan-1-ol] |
| 140 to 141 | O=C(O)CCc1conc1-c1ccc(F)c(Cl)c1 [Example 114, 3-[3-(3-chloro-4-fluorophenyl)-4-isoxazolyl]propionic acid] |
| 158 to 159 | Cc1cc(-c2oncc2CCC(=O)O)ccc1Cl [Example 95, 3-[5-(4-chloro-3-methylphenyl)-4-isoxazolyl]propionic acid] |
| 80 to 82 | CCOP(=O)(O)Cc1ccc(NC(=O)CCc2cnoc2-c2ccccc2)cc1 |
| 54 to 55 | CSc1ccc(-c2oncc2CCCO)cc1 [Example 105, 3-[5-(4-methylthiophenyl)-4-isoxazolyl]propan-1-ol] |
| 103 to 104 | O=C(O)CCc1cnoc1-c1cc(Cl)ccc1Cl [Example 98, 3-[5-(2,5-dichlorophenyl)-4-isoxazolyl]propionic acid] |
| 169 to 170 | O=C(O)CCc1conc1-c1ccc(-c2ccccc2)cc1 [Example 57, 3-[3-(4-phenylphenyl)-4-isoxazolyl]propionic acid] |
| 139 to 140 | O=C(O)CCc1cnoc1-c1ccc(Cl)c(F)c1 [Example 108, 3-[5-(4-chloro-3-fluorophenyl)-4-isoxazolyl]propionic acid] |
| 79 to 81 | Cc1onc(-c2ccccc2Cl)c1CCC(=O)O [Example 147, 3-[3-(2-chlorophenyl)-5-methyl-4-isoxazolyl]propionic acid] |
| 68 to 69 | COC(=O)CCc1cnoc1-c1ccc(C(F)(F)F)cc1 [Example 60, methyl 3-[5-(4-trifluoromethylphenyl)-4-isoxazolyl]propionate] |
| 134 to 135 | CCOP(=O)(Cc1ccc(NC(=O)CCc2cnoc2-c2ccc(F)cc2)cc1)OCC |
| 164 to 165 | CCc1onc(-c2ccc(Cl)cc2)c1CCC(=O)O [Example 142, 3-[3-(4-chlorophenyl)-5-ethyl-4-isoxazolyl]propionic acid] |
| 197 to 199 | O=C(O)/C=C/c1cnoc1-c1ccccc1 [Example 24, (E)-3-(5-phenyl-4-isoxazolyl)propenoic acid] |
| 162 to 164 | O=C(CCc1cnoc1-c1ccccc1)Nc1ccc(CP(=O)(O)O)cc1 [Example 413 (byproduct), 3-(5-Phenyl-4-isoxazolyl)-N-[4-(phosphonomethyl)phenyl]propionamide] |
| 85 to 86 | OCCCc1cnoc1-c1ccc(C(F)(F)F)cc1 [Example 62, 3-[5-(4-trifluoromethylphenyl)-4-isoxazolyl]propan-1-ol] |
| 152 to 153 | O=C(O)CCc1c(-c2ccccc2)noc1-c1ccccc1 [Example 146, 3-[3,5-diphenyl-4-isoxazolyl]propionic acid] |
| 151 to 152 | NC(=O)CCc1cnoc1-c1ccccc1 [Example 22, 3-(5-phenyl-4-isoxazolyl)propionamide] |
| 116 to 118 | O=C(O)CCc1cnoc1-c1ccc(OC(F)(F)F)cc1 [Example 1, 3-[5-(4-trifluoromethoxyphenyl)-4-isoxazolyl]propionic acid] |
